Measurements taken from ChEMBL document CHEMBL1201862, “PubChem BioAssay data set” (2004).
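Growth conditions: 96-well plates. Treatment: test compound, 48 hours, 5 concentrations. Analysis: linear interpolation between bracketing concentrations; unreached endpoints set to highest concentration. GI50 marks 50% less growth.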 Activity calls are given as the source filed them. Rule as the data show it: active = GI50 up to about 1.1 µM and inactive = higher.

Assays:
Test in all cases: NCI-60 cell line screen, 48 h
[1] = system: KM12
[2] = system: SK-MEL-5
[3] = system: SF-268
[4] = system: ACHN
[5] = system: SK-MEL-2
[6] = system: HCC 2998
[7] = system: NCI-H460
[8] = system: A549
[9] = system: SR
[10] = system: U-251
[11] = system: SN12C
[12] = system: NCI-H23
[13] = system: CAKI-1
[14] = system: UACC-62
[15] = system: HL-60
[16] = system: SF-539
[17] = system: RXF 393
[18] = system: IGROV-1
[19] = system: M14
[20] = system: HCT-116

Measured: GI50

OC1CCOc2ccccc21 (configuration not stated)
inactive: [1] > 100 µM | [2] > 100 µM | [3] > 100 µM | [4] > 100 µM | [5] > 100 µM | [6] > 100 µM | [7] > 100 µM | [8] > 100 µM | [9] > 100 µM | [10] > 100 µM | [11] > 100 µM | [12] > 100 µM | [13] > 100 µM | [14] > 100 µM | [15] > 100 µM | [16] > 100 µM | [17] > 100 µM | [18] > 100 µM | [19] > 100 µM | [20] > 100 µM

COc1ccc(C(=C(C#N)C#N)c2ccc(OC)cc2)cc1
inactive: [1] > 100 µM | [3] > 100 µM | [4] > 100 µM | [5] > 100 µM | [6] > 100 µM | [7] > 100 µM | [8] > 100 µM | [9] 59.4 µM | [10] > 100 µM | [11] > 100 µM | [12] > 100 µM | [13] > 100 µM | [14] > 100 µM | [15] > 100 µM | [16] > 100 µM | [17] > 100 µM | [18] > 100 µM | [19] > 100 µM | [20] > 100 µM

NC(=O)/N=C1/CCC2C3CCCC2C13
inactive: [1] > 100 µM | [2] > 100 µM | [3] > 100 µM | [4] > 100 µM | [5] 60.7 µM | [6] > 100 µM | [7] > 100 µM | [8] > 100 µM | [9] > 100 µM | [10] > 100 µM | [11] > 100 µM | [12] > 100 µM | [13] > 100 µM | [14] > 100 µM | [15] > 100 µM | [16] > 100 µM | [17] > 100 µM | [18] > 100 µM | [19] > 100 µM | [20] > 100 µM

C[N+](C)(C)CC(=O)NC(=O)N/N=C\C(CC#N)CN(Cc1ccccc1)Cc1ccccc1 (configuration not stated)
inactive: [1] > 100 µM | [2] > 100 µM | [3] > 100 µM | [4] > 100 µM | [5] > 100 µM | [6] 66.4 µM | [7] > 100 µM | [8] > 100 µM | [9] > 100 µM | [10] > 100 µM | [11] > 100 µM | [12] > 100 µM | [13] > 100 µM | [14] > 100 µM | [15] > 100 µM | [16] > 100 µM | [17] > 100 µM | [18] > 100 µM | [19] > 100 µM | [20] > 100 µM

Cc1ccc(C2CC(c3cccc([N+](=O)[O-])c3)=Nc3ccccc3S2)cc1 (configuration not stated)
inactive: [1] 18 µM | [2] 25.4 µM | [3] 34.9 µM | [4] 50.1 µM | [5] 38.3 µM | [6] 82.2 µM | [7] 68.5 µM | [8] 48.8 µM | [9] 25.8 µM | [10] 27.5 µM | [11] 32.9 µM | [12] 22.9 µM | [13] 24.3 µM | [14] 25.4 µM | [15] 20.1 µM | [16] 51.5 µM | [17] 29 µM | [18] 63.8 µM | [19] 31.8 µM | [20] 13.3 µM

CC1CC(C[N+](=O)[O-])CC2(C1)OCCO2 (configuration not stated)
inactive: [1] > 100 µM | [2] > 100 µM | [3] > 100 µM | [4] > 100 µM | [5] > 100 µM | [6] > 100 µM | [7] > 100 µM | [8] > 100 µM | [9] > 100 µM | [10] > 100 µM | [11] > 100 µM | [13] > 100 µM | [14] > 100 µM | [15] > 100 µM | [16] > 100 µM | [17] > 100 µM | [18] > 100 µM | [19] > 100 µM | [20] > 100 µM

COc1ccccc1N1C(=O)/C(=C\c2cc(OC)c(OC)c(OC)c2)SC1c1ccccc1 (configuration not stated)
inactive: [1] 21.1 µM | [2] 14.2 µM | [3] 31.6 µM | [4] 44.4 µM | [5] 68.4 µM | [6] > 100 µM | [7] 51.5 µM | [8] 57.4 µM | [9] 13.3 µM | [10] 24.4 µM | [11] 91 µM | [12] 31.4 µM | [13] > 100 µM | [14] 36.1 µM | [15] 26.2 µM | [16] 99.3 µM | [17] 14.5 µM | [19] 16.5 µM | [20] 18.5 µM
